Measurements reported in the CheMixHub drug solubility set.

Experiment: xn = mol fraction of the nth substance listed, in the solute-free solvent

CCC(C)n1ncn(-c2ccc(N3CCN(c4ccc(OCC5COC(Cn6cncn6)(c6ccc(Cl)cc6Cl)O5)cc4)CC3)cc2)c1=O (stereo unspecified) + ClCCl + CO
solubility (g/100 g solution)
Details | x2 = 0.04066 | x2 = 0.08707 | x2 = 0.1405 | x2 = 0.2028 | x2 = 0.2761 | x2 = 0.364 | x2 = 0.4709 | x2 = 0.6041 | x2 = 0.7744
288.15 K | 0.122 | 0.244 | 0.561 | 1.46 | 4.71 | 10.6 | 19.3 | 28 | 31.4
293.15 K | 0.147 | 0.294 | 0.696 | 1.84 | 5.79 | 12.5 | 21.2 | 29.4 | 32.6
298.15 K | 0.177 | 0.355 | 0.855 | 2.28 | 6.97 | 14.5 | 23.2 | 30.8 | 33.9
303.15 K | 0.212 | 0.426 | 1.04 | 2.83 | 8.37 | 16.8 | 25.3 | 32.2 | 35
308.15 K | 0.253 | 0.508 | 1.26 | 3.5 | 9.95 | 19.3 | 27.6 | 33.6 | 36.2

CC(N)C(=O)O (stereo unspecified) + O + CC(C)=O
solubility (g/100 g solution)
Details | x2 = 0.1 | x2 = 0.2 | x2 = 0.3 | x2 = 0.4 | x2 = 0.5 | x2 = 0.6 | x2 = 0.7 | x2 = 0.8 | x2 = 0.9
283.15 K | 0.0237 | 0.0301 | 0.047 | 0.0557 | 0.0712 | 0.135 | 0.382 | 1.03 | 3.44
293.15 K | 0.0407 | 0.0463 | 0.0511 | 0.0648 | 0.0791 | 0.17 | 0.457 | 1.34 | 4.17
303.15 K | 0.047 | 0.053 | 0.0603 | 0.0794 | 0.0969 | 0.22 | 0.611 | 1.73 | 5.02
313.15 K | 0.0547 | 0.0607 | 0.0696 | 0.0949 | 0.128 | 0.309 | 0.794 | 2.22 | 6.57
323.15 K | 0.0629 | 0.0786 | 0.0878 | 0.138 | 0.193 | 0.484 | 1.14 | 3.18 | 8.13

Cc1ncc(C[n+]2csc(CCO)c2C)c(N)n1.O=[N+]([O-])[O-] + O + CC(C)=O
solubility (g/100 g solution)
Details | 278.15 K | 283.15 K | 288.15 K | 293.15 K | 298.15 K | 303.15 K | 308.15 K | 313.15 K
x2 = 0.3 | 0.0632 | 0.0724 | 0.0831 | 0.0951 | 0.118 | 0.138 | 0.161 | 0.193
x2 = 0.4 | 0.169 | 0.198 | 0.227 | 0.252 | 0.298 | 0.344 | 0.393 | 0.437
x2 = 0.5 | 0.394 | 0.441 | 0.498 | 0.556 | 0.639 | 0.733 | 0.842 | 0.951
x2 = 0.6 | 0.648 | 0.746 | 0.87 | 0.996 | 1.16 | 1.37 | 1.64 | 2
x2 = 0.7 | 1.08 | 1.24 | 1.45 | 1.69 | 1.98 | 2.3 | 2.69 | 3.23
x2 = 0.8 | 1.55 | 1.8 | 2.14 | 2.53 | 2.97 | 3.56 | 4.14 | 4.86
x2 = 0.9 | 1.85 | 2.17 | 2.54 | 3.11 | 3.62 | 4.28 | 5 | 5.96
